The molecules below were run against T1, full length G2019 human LRRK2 (Homo sapiens, UniProt Q5S007, R50H) (assay: Full length G2019 human LRRK2 inhibition mass spectrometry assay). Settings: LRRKtide to phospho-LRRKtide conversion, RapidFire MS, 2 mM ATP.
T1 construct: made in house; host or cells: HEK293 6E cells transduced with BacMam virus (virus generated in Sf9 cells)
Format: biochemical
Procedure: a. Full Length G2019 Human LRRK2 Inhibition Mass Spectrometry Assay
This assay for Leucine Rich Repeat Kinase 2 (LRRK2) inhibition is based on the direct measurement of the peptide ‘LRRKtide’ (LRRKtide: RLGRDKYKT*LRQIRQ and “*” refers to the site of phosphorylation.) and phosphorylated ‘LRRKtide’ using a high throughput Rapid Fire mass spectrometry assay. Inhibitors are compounds that reduce the conversion of LRRKtide to phospho-LRRKtide.
• 1) Compounds were dissolved in 100% DMSO at a concentration of 10 mM, and 11-point dose response curves generated using a 1 in 4 serial dilution in DMSO. 100 nL of this dilution series was then added to a 384 well, v bottom polypropylene plate (Greiner 781280), excluding columns 6 and 18. 100 nL of DMSO were added to column 6 to serve as the high control, while column 18 served as the low control containing assay buffer in place of the LRRK2 protein. Assay dilution gave a top final assay concentration of test compound of […] • 2) 5 μL of ‘enzyme solution’ containing 2× final assay concentration of purified recombinant Full length Flag-LRRK2 in assay buffer (50 mM Hepes, pH 7.2, 10 mM MgCl2, 150 mM NaCl, 5% glycerol, 0.0025% Triton X-100 and 1 mM DTT) were added to all wells using a Multidrop Combi dispenser (ThermoFisher Scientifiec), giving a final assay concentration of 25 nM LRRK2 enzyme (final concentration may vary depending on specific activity of different enzyme batches). • 3) 5 μL of substrate solution containing 50 μM LRRKtide peptide substrate and […] was added to all wells of the plate using a Multidrop Combi dispenser giving a final assay concentration of 25 μM LRRKtide peptide and 2 mM ATP. Test plates were then incubated for 1 hour at room temperature. (Incubation may vary depending on rate and linearity of reaction with different enzyme batches). • 4) 50 μl of 1% formic acid in laboratory grade water was added to all wells to quench the reaction, and plates were heat-sealed prior to centrifugation at 1348×g for 10 minutes. Test plates were then analysed on an Agilent RapidFire High Throughput solid phase extraction system coupled to AB Sciex API 4000 triple quadropole mass spectrometer with the following setting:
• Sip Height=2 mm, Aspirate=500 ms, Load time=3000 ms, Elution time=3000 ms, Requilibration=500 ms. • Flow rates: pump 1=1.5 mL/min, pump 2 1.25 mL/min pump 3=0.8 mL/min
Mass Spectrometer Settings: • LRRKtide Detection settings: Q1 mass 644.8 Da, Q3 mass 638.8, declustering potential 76 volts, collision energy 37 volts, CXP 34 volts. • Phospho-LRRKtide Detection settings: Q1 mass 671.4 Da, Q3 mass 638.8, Declustering potential 76 volts, Collision energy 37 volts, CXP 34 volts. • A C4 cartridge was used and running buffers were: A (aqueous) 0.1% formic acid in water B (organic) 0.1% formic acid, 80% acetonitrile, 20% water. • Collision gas: 12, Curtain gas: 25, Ion Source gas (1): 60, Ion Source gas (2): 60, Ion Spray Voltage: 5500, Temperature: 600, Interface Heater: ON. • Resolution Q1: low, Resolution Q3: low. • 5) Data were analysed using ActivityBase software (IDBS). A percent conversion from LRRKtide to Phospho-LRRKtide was calculated using the following formula:
% conversion=(Phospho-LRRKtide product peak area/(Phospho-LRRKtide product peak area+LRRKtide substrate peak area))*100 • A logistic 4 parameter curve fit was applied, using the following formula,
[formula] • Where x is the concentration of test sample, y is inhibition (%), a is the minimum, b is the Hill slope, c is the IC50 and d is the maximum. From this, the pIC50 was derived (−log IC50).

T1 sequence (Q5S007 with tags, fused parts or gaps R50H): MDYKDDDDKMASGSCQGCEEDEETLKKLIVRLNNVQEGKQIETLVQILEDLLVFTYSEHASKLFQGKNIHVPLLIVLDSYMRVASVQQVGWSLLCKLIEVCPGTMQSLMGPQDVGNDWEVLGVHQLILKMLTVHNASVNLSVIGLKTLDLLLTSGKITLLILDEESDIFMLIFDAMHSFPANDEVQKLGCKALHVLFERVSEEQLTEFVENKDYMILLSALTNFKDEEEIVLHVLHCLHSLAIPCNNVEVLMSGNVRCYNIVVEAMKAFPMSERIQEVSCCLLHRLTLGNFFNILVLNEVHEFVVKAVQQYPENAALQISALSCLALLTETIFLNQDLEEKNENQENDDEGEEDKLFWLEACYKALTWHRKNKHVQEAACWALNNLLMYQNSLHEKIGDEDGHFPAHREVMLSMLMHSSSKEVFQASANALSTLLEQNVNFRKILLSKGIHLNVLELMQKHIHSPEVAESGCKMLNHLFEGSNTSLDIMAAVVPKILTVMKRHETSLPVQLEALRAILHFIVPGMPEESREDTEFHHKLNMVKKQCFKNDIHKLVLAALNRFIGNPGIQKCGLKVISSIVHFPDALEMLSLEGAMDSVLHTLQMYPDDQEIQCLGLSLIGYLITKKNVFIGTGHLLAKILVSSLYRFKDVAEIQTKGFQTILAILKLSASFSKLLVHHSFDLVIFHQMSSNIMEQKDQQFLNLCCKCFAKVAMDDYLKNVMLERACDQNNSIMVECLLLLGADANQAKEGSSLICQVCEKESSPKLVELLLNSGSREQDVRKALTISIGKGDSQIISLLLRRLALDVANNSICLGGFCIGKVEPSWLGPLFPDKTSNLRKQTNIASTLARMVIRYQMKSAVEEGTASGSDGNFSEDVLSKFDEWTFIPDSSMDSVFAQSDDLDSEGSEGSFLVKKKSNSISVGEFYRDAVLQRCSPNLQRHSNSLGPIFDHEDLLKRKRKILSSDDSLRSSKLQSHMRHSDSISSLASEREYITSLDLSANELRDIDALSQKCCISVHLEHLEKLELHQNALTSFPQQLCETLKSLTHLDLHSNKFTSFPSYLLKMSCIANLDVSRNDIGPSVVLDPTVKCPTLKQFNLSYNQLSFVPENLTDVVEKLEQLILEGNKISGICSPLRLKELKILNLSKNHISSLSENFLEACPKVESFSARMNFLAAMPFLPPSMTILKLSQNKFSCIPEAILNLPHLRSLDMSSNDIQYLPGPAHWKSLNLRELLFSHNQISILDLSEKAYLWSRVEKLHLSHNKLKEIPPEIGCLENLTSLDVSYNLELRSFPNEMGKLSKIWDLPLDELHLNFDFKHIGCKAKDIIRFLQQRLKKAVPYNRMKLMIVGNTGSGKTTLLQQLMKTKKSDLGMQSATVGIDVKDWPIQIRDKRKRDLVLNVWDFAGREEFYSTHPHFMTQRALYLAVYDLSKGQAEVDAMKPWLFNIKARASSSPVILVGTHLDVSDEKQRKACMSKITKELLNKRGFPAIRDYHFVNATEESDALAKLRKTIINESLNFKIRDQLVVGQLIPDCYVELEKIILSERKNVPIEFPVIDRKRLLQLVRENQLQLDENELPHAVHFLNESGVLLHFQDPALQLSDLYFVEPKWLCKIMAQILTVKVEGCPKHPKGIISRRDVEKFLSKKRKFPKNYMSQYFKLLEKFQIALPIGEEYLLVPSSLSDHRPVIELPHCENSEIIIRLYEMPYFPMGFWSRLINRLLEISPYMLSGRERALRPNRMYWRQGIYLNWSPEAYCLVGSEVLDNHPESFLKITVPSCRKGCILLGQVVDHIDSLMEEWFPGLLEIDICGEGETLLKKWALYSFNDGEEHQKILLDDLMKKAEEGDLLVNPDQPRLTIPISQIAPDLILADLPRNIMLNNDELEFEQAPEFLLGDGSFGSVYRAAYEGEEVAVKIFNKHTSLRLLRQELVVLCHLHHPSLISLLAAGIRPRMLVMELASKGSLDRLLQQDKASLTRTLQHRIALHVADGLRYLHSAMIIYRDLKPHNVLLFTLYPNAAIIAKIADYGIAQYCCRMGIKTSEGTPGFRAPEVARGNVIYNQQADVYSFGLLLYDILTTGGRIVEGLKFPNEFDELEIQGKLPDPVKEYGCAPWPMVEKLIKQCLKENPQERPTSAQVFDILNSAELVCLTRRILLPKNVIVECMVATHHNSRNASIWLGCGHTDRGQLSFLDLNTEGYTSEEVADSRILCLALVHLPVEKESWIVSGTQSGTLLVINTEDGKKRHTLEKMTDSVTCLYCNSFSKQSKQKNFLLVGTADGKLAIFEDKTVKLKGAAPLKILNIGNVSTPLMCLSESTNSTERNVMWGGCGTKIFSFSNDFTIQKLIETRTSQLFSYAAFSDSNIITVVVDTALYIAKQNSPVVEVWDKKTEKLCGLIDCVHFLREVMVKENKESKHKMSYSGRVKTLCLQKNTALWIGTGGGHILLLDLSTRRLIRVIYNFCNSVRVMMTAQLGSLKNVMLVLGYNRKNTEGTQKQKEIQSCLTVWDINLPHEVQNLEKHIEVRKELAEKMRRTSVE

| Structure (SMILES) | IC50 [nM] |
| --- | --- |
| Cc1c2c(nn1C1CC3CCC(C1)O3)OCCC(C)Nc1nc(ncc1Cl)N2 (single isomer, unassigned) [E250, 14-Chloro-4,11-dimethyl-5-{8-oxabicyclo[3.2.1]octan-3-yl}-8-oxa-2,5,6,12,16,17-hexaazatricyclo[11.3.1.0^3,7] heptadeca-1(16),3,6,13(17),14-pentaene] | ≤ 10000 |
| Cc1c2c(nn1C1CCCOC1)OCC(C)CNc1nc(ncc1Cl)N2 (single isomer, unassigned) [E309, 14-Chloro-4,10-dimethyl-5-(oxan-3-yl)-8-oxa-2,5,6,12,16,17-hexaazatricyclo[11.3.1.0^3,7]heptadeca-1(16),3,6, 13(17),14-pentaene] | ≤ 100 |
| COCC1CCOc2nn(C3CCOCC3F)c(C)c2Nc2ncc(Cl)c(n2)N1 (single isomer, unassigned) [E354, 14-Chloro-5-(3-fluorooxan-4-yl)-11-(methoxymethyl)-4-methyl-8-oxa-2,5,6,12,16,17-hexaazatricyclo [11.3. 1.0^3,7]heptadeca-1(16),3,6,13(17),14-pentaene] | ≤ 100 |
| COCC1CCOc2nn(C3CCOCC3F)c(C)c2Nc2ncc(Cl)c(n2)N1 (single isomer, unassigned) [E352, 14-Chloro-5-(3-fluorooxan-4-yl)-11-(methoxymethyl)-4-methyl-8-oxa-2,5,6,12,16,17-hexaazatricyclo [11.3. 1.0^3,7]heptadeca-1(16),3,6,13(17),14-pentaene] | ≤ 100 |
| Cc1c2c(nn1C1CN(C3CCOCC3)C1)OC[C@@H](F)[C@@H](C)Nc1nc(ncc1Cl)N2 [E388, (10S, 11R)-14-Chloro-10-fluoro-4,11-dimethyl-5-[1-(oxan-4-yl)azetidin-3-yl]-8-oxa-2,5,6,12,16,17-hexaazatricyclo [11.3.1.0^3,7]heptadeca-1(16),3,6,13(17),14-pentaene] | ≤ 100 |
| Cc1c2c(nn1C(C)C1CCOCC1)OCCCNc1nc(ncc1Cl)N2 (single isomer, unassigned) [E187, 14-Chloro-4-methyl-5-[1-(oxan-4-yl)ethyl]-8-oxa-2,5,6,12,16,17-hexaazatricyclo[11.3.1.0^3,7]heptadeca-1(16), 3,6,13(17),14-pentaene] | ≤ 100 |
| Cc1c2c(nn1C1CCCOC1)OCC(C)CNc1nc(ncc1Cl)N2 (single isomer, unassigned) [E307, 14-Chloro-4,10-dimethyl-5-(oxan-3-yl)-8-oxa-2,5,6,12,16,17-hexaazatricyclo[11.3.1.0^3,7]heptadeca-1(16),3,6, 13(17),14-pentaene] | ≤ 100 |
| Clc1cnc2nc1NCCCOc1nn(C3CCOCC3)c(C3CC3)c1N2 [E147, 14-Chloro-4-cyclopropyl-5-(oxan-4-yl)-8-oxa-2,5,6,12,16,17-hexaazatricyclo[11.3.1.0^3,7]heptadeca-1(16),3,6,13(17),14-pentaene] | ≤ 10000 |
| Cc1c2c(nn1C(C)(C)C#N)OCC[C@@H](C(C)C)Nc1nc(ncc1Cl)N2 [E323, 2-[(11S)-14-Chloro-4-methyl-11-(propan-2-yl)-8-oxa-2,5,6,12, 16,17-hexaazatricyclo[11.3.1.0^3,7]heptadeca-1(16),3,6,13(17),14-pentaen-5-yl]-2-methylpropanenitrile] | ≤ 10000 |
| Cc1c2c(nn1C1CCOCC1)OCC[C@@H](C(C)C)Nc1nc(ncc1Cl)N2 [E298, (11S)-14-Chloro-4-methyl-5-(oxan-4-yl)-11-(propan-2-yl)-8-oxa-2,5,6,12,16,17-hexaazatricyclo[11.3.1.0^3,7]heptadeca-1(16),3,6,13(17),14-pentaene] | ≤ 100 |
| COC1CNc2nc(ncc2Cl)Nc2c(nn(CC3CCOCC3)c2C)OC1 (single isomer, unassigned) [E275, 14-Chloro-10-methoxy-4-methyl-5-(oxan-4-ylmethyl)-8-oxa-2,5,6,12,16,17-hexaazatricyclo[11.3.1.0^3,7] heptadeca-1(16),3,6,13(17),14-pentaene] | ≤ 10000 |
| Cc1c2c(nn1C1CCC(C)CC1)OCCC(C)Nc1nc(ncc1Cl)N2 (single isomer, unassigned) [E261, 14-Chloro-4,11-dimethyl-5-(4-methylcyclohexyl)-8-oxa-2,5,6,12,16,17-hexaazatricyclo[11.3.1.0^3,7] heptadeca-1(16),3,6,13(17),14-pentaene] | ≤ 10000 |
| Cc1c2c(nn1CC(C)(C)O)OCCC(C)Nc1nc(ncc1Cl)N2 (single isomer, unassigned) [E264, 1-{14-Chloro-4,11-dimethyl-8-oxa-2,5,6,12,16,17-hexaazatricyclo[11.3.1.0^3,7]heptadeca-1(17),3,6,13,15-pentaen-5-yl}-2-methylpropan-2-ol] | ≤ 10000 |
| Cc1c2c(nn1CCN1CCC(F)(F)C1)OCCC(C)Nc1nc(ncc1Cl)N2 (single isomer, unassigned) [E214, 14-Chloro-5-[2-(3,3-difluoropyrrolidin-1-yl)ethyl]-4,11-dimethyl-8-oxa-2,5,6,12,16,17-hexaazatricyclo [11.3.1.0^3,7]heptadeca-1(16),3,6,13(17),14-pentaene] | ≤ 10000 |
| Cc1c2c(nn1C1CCOCC1)OCCC(CF)Nc1nc(ncc1Cl)N2 (single isomer, unassigned) [E53, 14-chloro-11-(fluoromethyl)-4-methyl-5-(oxan-4-yl)-8-oxa-2,5,6,12, 16,17-hexaazatricyclo[11.3.1.0^3,7]heptadeca-1(16),3,6,13(17),14-pentaene] | ≤ 10000 |
| Cc1c2c(nn1C1CCN(C3COC3)CC1(F)F)OCCCNc1nc(ncc1Cl)N2 (single isomer, unassigned) [E405, 14-Chloro-5-[3,3-difluoro-1-(oxetan-3-yl)piperidin-4-yl]-4-methyl-8-oxa-2,5,6,12,16,17-hexaazatricyclo[11.3.1.0^3,7]heptadeca-1(16),3,6,13(17),14-pentaene] | ≤ 100 |
| Cc1c2c(nn1C1CC(C)OC(C)C1)OCCC(C)Nc1nc(ncc1Cl)N2 (single isomer, unassigned) [E197, 14-Chloro-5-(2,6-dimethyloxan-4-yl)-4,11-dimethyl-8-oxa-2,5,6,12,16,17-hexaazatricyclo[11.3.1.0^3,7] heptadeca-1(16),3,6,13(17),14-pentaene] | ≤ 10000 |
| COC1CCCC(n2nc3c(c2C)Nc2ncc(Cl)c(n2)NCCCO3)C1 (single isomer, unassigned) [E180, 14-Chloro-5-(3-methoxycyclohexyl)-4-methyl-8-oxa-2,5,6,12,16,17-hexaazatricyclo[11.3.1.0^3,7]heptadeca-1(16),3,6,13(17),14-pentaene] | ≤ 100 |
| CCC1CCOc2nn(C3COC3)c(C)c2Nc2ncc(Cl)c(n2)N1 (single isomer, unassigned) [E320, 14-Chloro-11-ethyl-4-methyl-5-(oxetan-3-yl)-8-oxa-2,5,6,12,16,17-hexaazatricyclo[11.3.1.0^3,7]heptadeca-1(16), 3,6,13(17),14-pentaene] | ≤ 100 |
| Cc1c2c(nn1C1CCC(C)CC1)OCCC(C)Nc1nc(ncc1Cl)N2 (single isomer, unassigned) [E260, 14-Chloro-4,11-dimethyl-5-(4-methylcyclohexyl)-8-oxa-2,5,6,12,16,17-hexaazatricyclo[11.3.1.0^3,7] heptadeca-1(16),3,6,13(17),14-pentaene] | ≤ 100 |
| Cc1c2c(nn1C1CCC(C)CC1)OCCCNc1nc(ncc1Cl)N2 (single isomer, unassigned) [E258, 14-Chloro-4-methyl-5-(4-methylcyclohexyl)-8-oxa-2,5,6,12,16,17-hexaazatricyclo[11.3.1.0^3,7]heptadeca-1(16),3,6,13 (17),14-pentaene] | ≤ 100 |

Reference: patent publication US20200392158A1, “INHIBITORS OF LEUCINE RICH REPEAT KINASE 2” (GLAXOSMITHKLINE INTELLECTUAL PROPERTY DEVELOPMENT LIMITED, priority 2017, published 2020)
